In test [1] the test system is pre-established BLM-induced skin fibrosis. As to conditions: imatinib at 150 mg/kg orally once daily day 22-42, positive control.
In test [2] the test system is dermal fibroblasts from healthy donors. Put plainly: TGF-β-induced human fibroblast activation, healthy donors. The format is cell-based. The following applies: concentration of 1000 nmol/L; TGF-β 10 ng/mL, 24 hours. The text has this:
(§1) Full-thickness skin biopsies were obtained from clinically involved skin of patients affected by dcSSc, who were recruited from the Systemic sclerosis clinic within the Leeds Institute of Rheumatic and Musculoskeletal Medicine (UK). Control skin samples were from healthy donors. All patients with dcSSc and healthy donors provided written informed consent through the stratification for risk of progression in systemic sclerosis (STRIKE SSC), which had been approved by the North-East Research Ethic committee. Patients with SSc fulfilled the 2013 ACR/EULAR classification criteria for SSc and were classified as having dcSSc according to the LeRoy and Medsger criteria.
Dermal fibroblasts were isolated from the skin biopsy samples of healthy donors and SSc patients. The skin biopsy samples were minced with a scalpel, placed in plastic culture dishes and covered with Dulbecco's Modified Eagle Medium (DMEM) with 4.5 g/L glucose (Thermo Fisher Scientific) supplemented with 20% fetal calf serum (FCS, Thermo Fisher Scientific), 1% penicillin and streptomycin (Merck), and 1 μg/ml of amphotericin (Thermo Fisher Scientific) and cultured at 37° C. in a humidified atmosphere of 5% CO2. Additional growth medium was added after 3 days with no amphotericin. After 7 days, culture medium was replaced with medium containing 10% FCS and subsequently replenished every 2 to 3 days. When a visible outgrowth of cells was obtained, the fibroblasts were passaged. Briefly, cells were incubated with PBS containing 0.1% EDTA for 5 min, and then detached with trypsin-EDTA solution (Merck), and cultured until 70-80% confluent in DMEM (1 g/L glucose) supplemented with 10% FCS and 1% penicillin and streptomycin. After a subsequent passage, primary cells were retrovirally immortalized using human telomerase reverse transcriptase. […]
(§2) Total RNA was extracted using the Zymo quick RNA mini prep kit according to manufacturer's instructions (Zymo Research Corporation). […] Quantitative RT-PCR was performed in triplicates using SYBR Green RT-PCR Mastermix Kit (Thermo Fisher Scientific) and the ABI PRISM 7500 Fast Real Time PCR System (Applied Biosystems). […]
FIGS. 5(A)-5(B) show the effect of Compound A on human fibroblast activation. Dermal fibroblasts from a healthy individual or an SSc patient were grown to confluence, and placed under starvation for 24 hours in a medium supplemented with 1% fetal bovine serum (A: mRNA expression of ACTA2 and COL1A1 in dermal fibroblasts of healthy individuals was measured by real-time PCR, and normalized for the GAPDH expression level. B: mRNA expression of ACTA2 and COL1A1 in dermal fibroblasts of SSc patients was measured for by real-time PCR, and normalized for the GAPDH expression level). Each bar represents the mean±SEM of the measured values from three wells. […]

The subject of test [3] is bleomycin (BLM)-induced skin fibrosis model. As to conditions: reported in the literature; cited from earlier work.
Test [4] deals with dermal fibroblasts from SSc patients. Put plainly: TGF-β-induced human fibroblast activation, SSc patients. Format: cell-based. As to conditions: concentration of 1000 nmol/L; TGF-β 10 ng/mL, 24 hours.
Text: as §1
Dermal fibroblasts were isolated from the skin biopsy samples of healthy donors and SSc patients. […]
as §2
FIGS. 5(A)-5(B) show the effect of Compound A on human fibroblast activation. […] Each bar represents the mean±SEM of the measured values from three wells. […]

For `Cc1ccc(NC(=O)c2ccc(CN3CCN(C)CC3)cc2)cc1Nc1nccc(-c2cccnc2)n1` [imatinib, reference compound], in test [1], the “BLM-induced increase of skin thickness” value is on record as “improved”, the “BLM-induced increase of αSMA-positive myofibroblasts in the dermis” value was “improved” and the “BLM-induced loss of dermal white adipose tissue” value was “improved”.
As for α-MSH [reference compound], the “TGF-β-induced increase in αSMA mRNA expression” value in test [2] and in test [4] was “suppressed” in each case. In test [3], the skin fibrosis result is listed as “suppress”.

These data come from patent US12533350B2, “Use of melanocortin-1 receptor agonist” (TANABE PHARMA CORPORATION, priority 2022, dated 2026).
